Here are results for eight molecules from ChEMBL document CHEMBL2434919, “Synthesis, cytotoxicity, and DNA-binding property of berberine derivatives” (Med Chem Res, 2013).

Calls of active or inactive are those of the source. The rule behind the calls is not given here.

Assay [1] concerns DNA. The assay can be described thus: Binding affinity to calf thymus DNA assessed as conformational changes in DNA morphology at […] after 2 hrs by circular dichroism analysis. Type of assay: nucleic-acid assay. The conditions noted are these: Bos taurus.
Assay [2] deals with DNA. The assay can be described thus: Binding affinity to calf thymus DNA assessed as intercalation after 2 hrs by Stern-Volmer plot relative to control. In kind it is nucleic-acid assay. Conditions: Bos taurus.
The subject of assay [3] is DNA. The assay can be described thus: Binding affinity to calf thymus DNA assessed as hypochromicity at 20 uM after 2 hrs by UV-Vis absorption titration analysis. In kind it is nucleic-acid assay. Conditions: Bos taurus.
For assay [4], the system named is DNA. The assay can be described thus: Binding affinity to calf thymus DNA assessed as intercalation after 2 hrs by UV-Vis absorption titration analysis. In kind it is nucleic-acid assay. The conditions noted are these: Bos taurus.
A further assay relates to KB. The assay can be described thus: Cytotoxicity against human KB cells after 48 hrs by MTT assay. In kind it is functional, cell-based.
Another assay relates to Bel-7402. The assay can be described thus: Cytotoxicity against human Bel7402 cells after 48 hrs by MTT assay. In kind it is functional, cell-based. Conditions: Bel-7402, 48 h.
In a further assay the test system is BGC-823. The assay can be described thus: Cytotoxicity against human BGC823 cells after 48 hrs by MTT assay. In kind it is functional, cell-based. The conditions noted are these: BGC-823, 48 h.
For another assay, the system named is HL-60. The assay can be described thus: Cytotoxicity against human HL60 cells after 48 hrs by MTT assay. In kind it is functional, cell-based. The conditions noted are these: HL-60, 48 h.
The test system of assay [5] is DNA. The assay can be described thus: Binding affinity to calf thymus DNA assessed as change in melting temperature at 100 uM by spectroscopic analysis. Conditions: Bos taurus. In kind it is nucleic-acid assay.

Regarding `COc1ccc2cc3[n+](cc2c1OCCN1CCOCC1)CCc1cc2c(cc1-3)OCO2`, in the assay on DNA [1], the outcome was Active. Moreover, the KSV with DNA [2] was determined as 1.27 ×10⁵ /M. Also, the Activity in the assay on DNA [3] was determined as 17%. In addition, in the assay with DNA [4], the K was found to be 3.55 ×10⁸ /M. Also, the IC50 came out at 5.46 µM with KB, 11.6 µM with Bel-7402, 2.82 µM in the assay with BGC-823 and 2.71 µM with HL-60. Besides, the ΔTm with DNA [5] was 1.4 °C.

As for `COc1ccc2cc3[n+](cc2c1OCCOCCOCCN1CCCCC1)CCc1cc2c(cc1-3)OCO2`, in the assay with DNA [1], the result was Active. For the same molecule, the KSV in the assay on DNA [2] came to 1.01 ×10⁵ /M. Moreover, the Activity in the assay on DNA [3] stood at 21%. The K with DNA [4] turned out to be 1.86 ×10⁵ /M. Besides, the IC50 was 33.9 µM in the assay with KB, 33.4 µM in the assay on Bel-7402, 20.6 µM in the assay with BGC-823 and 45.8 µM in the assay with HL-60. In addition, in the assay with DNA [5], the ΔTm came out at 1.3 °C.

Consider `COc1ccc2cc3[n+](cc2c1O)CCc1cc2c(cc1-3)OCO2` [BERBERRUBINE CHLORIDE], for which the IC50 with KB was 6.92 µM; in the assay on Bel-7402, 34.3 µM; in the assay on BGC-823, 7.66 µM; with HL-60 it was 11.4 µM.

For `COc1ccc2cc3[n+](cc2c1OCCN1CCCCC1)CCc1cc2c(cc1-3)OCO2`, in the assay on DNA [1], the result was Active. Also, the KSV in the assay with DNA [2] was found to be 7.09 ×10⁴ /M. Also, the Activity in the assay with DNA [3] turned out to be 21%. Also, the K in the assay with DNA [4] amounted to 1.27 ×10⁸ /M. The IC50 in the assay on KB was determined as 17.1 µM; with Bel-7402, 27.5 µM; in the assay with BGC-823, 10.2 µM; with HL-60, 6.51 µM. Besides, the ΔTm in the assay on DNA [5] worked out at 2.2 °C.

As for `COc1ccc2cc3[n+](cc2c1OCCOCCOCCN1CCOCC1)CCc1cc2c(cc1-3)OCO2`, in the assay on DNA [1], the result was Active. Besides, the KSV in the assay on DNA [2] worked out at 1.79 ×10⁵ /M. For the same molecule, the Activity with DNA [3] was 25%. Moreover, the K in the assay on DNA [4] was 3.45 ×10⁵ /M. Besides, the IC50 with KB came out at 10 µM; with Bel-7402 it was 9.66 µM; in the assay with BGC-823, 10.8 µM; in the assay on HL-60 it was 14.8 µM. The ΔTm in the assay on DNA [5] came out at 1.2 °C.

Turning to `COc1ccc2cc3[n+](cc2c1OCCOCCN1CCCCC1)CCc1cc2c(cc1-3)OCO2`, in the assay with DNA [1], the result was Active. Further, the KSV in the assay with DNA [2] turned out to be 8.01 ×10⁴ /M. In the assay on DNA [3], the Activity was determined as 19%. In the assay on DNA [4], the K is 1.49 ×10⁶ /M. The IC50 was 19.7 µM with KB, 17.9 µM in the assay on Bel-7402, 22.2 µM in the assay on BGC-823 and 46.8 µM with HL-60. Besides, the ΔTm in the assay on DNA [5] turned out to be 1.5 °C.

Regarding `COc1ccc2cc3[n+](cc2c1OC)CCc1cc2c(cc1-3)OCO2` [BERBERINE CHLORIDE], the IC50 with KB turned out to be 6.03 µM; with Bel-7402, 16.3 µM; with BGC-823, 7.04 µM; in the assay on HL-60, 5.83 µM.

Regarding `COc1ccc2cc3[n+](cc2c1OCCOCCN1CCOCC1)CCc1cc2c(cc1-3)OCO2`, the outcome with DNA [1] was Active. Besides, the KSV in the assay with DNA [2] was 1.82 ×10⁵ /M. Further, the Activity in the assay on DNA [3] turned out to be 21%. Also, the K in the assay on DNA [4] came to 6.32 ×10⁶ /M. For the same molecule, the IC50 with KB turned out to be 9.93 µM; in the assay with Bel-7402, 9.44 µM; in the assay with BGC-823 it was 11.9 µM; in the assay on HL-60 it was 16.4 µM. In addition, the ΔTm in the assay on DNA [5] worked out at 1.7 °C.
